For assay [1], the system named is mouse model of rheumatoid arthritis. The note with it: in vivo; cited from earlier work.
Assay [2] concerns model of systemic lupus erythematosis. The note with it: in vivo; cited from earlier work.
The next assay deals with T1, p110δ (Homo sapiens, UniProt O00329).
T1 sequence (O00329 1-1044): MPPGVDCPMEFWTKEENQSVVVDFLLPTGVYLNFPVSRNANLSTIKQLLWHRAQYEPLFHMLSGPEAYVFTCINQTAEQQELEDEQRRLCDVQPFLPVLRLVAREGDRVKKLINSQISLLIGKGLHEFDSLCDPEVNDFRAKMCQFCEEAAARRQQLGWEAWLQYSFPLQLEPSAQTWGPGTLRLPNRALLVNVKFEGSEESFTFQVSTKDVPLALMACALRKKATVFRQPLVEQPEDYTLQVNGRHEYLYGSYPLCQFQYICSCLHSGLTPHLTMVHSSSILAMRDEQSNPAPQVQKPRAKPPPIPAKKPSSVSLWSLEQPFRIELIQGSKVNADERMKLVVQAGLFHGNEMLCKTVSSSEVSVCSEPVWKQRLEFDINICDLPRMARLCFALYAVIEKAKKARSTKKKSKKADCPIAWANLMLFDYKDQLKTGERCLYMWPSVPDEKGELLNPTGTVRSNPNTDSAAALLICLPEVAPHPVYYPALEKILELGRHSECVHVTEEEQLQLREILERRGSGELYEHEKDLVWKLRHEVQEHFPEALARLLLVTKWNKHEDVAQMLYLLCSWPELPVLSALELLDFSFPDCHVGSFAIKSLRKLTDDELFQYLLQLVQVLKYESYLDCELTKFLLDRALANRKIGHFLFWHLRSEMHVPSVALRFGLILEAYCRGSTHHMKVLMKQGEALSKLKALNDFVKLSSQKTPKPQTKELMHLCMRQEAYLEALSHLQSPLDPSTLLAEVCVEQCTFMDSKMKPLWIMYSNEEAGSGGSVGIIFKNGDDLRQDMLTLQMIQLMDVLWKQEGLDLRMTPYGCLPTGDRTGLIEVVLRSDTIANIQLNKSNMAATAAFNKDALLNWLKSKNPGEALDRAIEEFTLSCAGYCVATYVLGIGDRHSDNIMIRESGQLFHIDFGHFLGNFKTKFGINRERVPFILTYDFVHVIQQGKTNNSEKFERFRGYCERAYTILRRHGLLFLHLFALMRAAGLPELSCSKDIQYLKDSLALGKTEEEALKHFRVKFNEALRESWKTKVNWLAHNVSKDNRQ
The conditions noted are these: cited from earlier work.

The subject of another assay is protein kinases. The conditions noted are these: cited from earlier work.
In assay [3] the test system is ovalbumin-induced airway inflammation. The conditions noted are these: cited from earlier work.
Another assay concerns the target T2, PI3Kδ (Homo sapiens, UniProt O00329).
T2 construct: Full length p110 subunits of PI3k α, β and δ, N-terminally labeled with polyHis tag; polyHis (N); made in house; host or cells: Sf9 insect cells (baculovirus)
Briefly: PI3Kδ Alphascreen assay. The format is biochemical.

T2 sequence (P27986 whole entry partner, one chain of several): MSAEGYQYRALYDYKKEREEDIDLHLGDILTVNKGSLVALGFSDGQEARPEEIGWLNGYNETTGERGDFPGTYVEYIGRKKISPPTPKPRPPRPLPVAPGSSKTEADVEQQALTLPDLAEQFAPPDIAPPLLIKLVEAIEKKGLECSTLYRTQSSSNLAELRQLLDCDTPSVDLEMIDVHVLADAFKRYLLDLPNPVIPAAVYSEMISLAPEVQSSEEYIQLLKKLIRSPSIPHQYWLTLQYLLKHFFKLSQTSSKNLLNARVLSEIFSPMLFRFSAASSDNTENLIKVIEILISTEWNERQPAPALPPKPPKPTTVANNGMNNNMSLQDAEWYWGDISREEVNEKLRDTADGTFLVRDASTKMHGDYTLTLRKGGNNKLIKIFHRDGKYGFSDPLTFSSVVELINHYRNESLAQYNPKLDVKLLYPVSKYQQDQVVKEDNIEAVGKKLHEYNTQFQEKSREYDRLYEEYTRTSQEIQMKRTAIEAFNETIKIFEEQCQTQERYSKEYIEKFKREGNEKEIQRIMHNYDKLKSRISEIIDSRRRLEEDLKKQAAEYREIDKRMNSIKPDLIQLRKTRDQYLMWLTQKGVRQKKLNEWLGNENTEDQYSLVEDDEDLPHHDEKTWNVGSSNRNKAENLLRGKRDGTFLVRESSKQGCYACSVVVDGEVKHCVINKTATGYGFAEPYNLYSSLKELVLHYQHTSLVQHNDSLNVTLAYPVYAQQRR

As to `O=C1NC(=O)/C(=C\c2ccc3nccnc3c2)S1` [AS 605240], in assay [1], the “efficacy in a mouse model of rheumatoid arthritis” value is reported as “efficacious”. Further, the “onset of disease in a model of systemic lupus erythematosis” value in assay [2] is “delay onset of disease”.
`Cc1ccccc1-n1c(Cn2cnc3c(N)ncnc32)nc2cccc(C)c2c1=O` [IC87114]: the “inhibits p110δ” value at p110δ is recorded as “high nanomolar range (triple digit)”. In addition, the “activity against any protein kinases tested” value in the assay with protein kinases was “no activity”. Also, in assay [3], the “inflammation and disease in a murine model of asthma” value was “significantly ameliorate inflammation and disease”.
`Cc1c(N2CCN(C(=O)OC(C)(C)C)C[C@@H]2C)nc2cc(F)cc(F)c2c1Nc1cncc(N2CCOCC2)c1` [tert-butyl (3S)-4-(5,7-difluoro-3-methyl-4-((5-(4-morpholinyl)-3-pyridinyl)amino)-2-quinolinyl)-3-methyl-1-piperazinecarboxylate] had a Ki on PI3Kδ of 0.358 µM.
